The target in assay [1] is T1, Nucleotide-binding oligomerization domain-containing protein 1 (Homo sapiens, UniProt Q9Y239).
T1 sequence (Q9Y239 whole entry): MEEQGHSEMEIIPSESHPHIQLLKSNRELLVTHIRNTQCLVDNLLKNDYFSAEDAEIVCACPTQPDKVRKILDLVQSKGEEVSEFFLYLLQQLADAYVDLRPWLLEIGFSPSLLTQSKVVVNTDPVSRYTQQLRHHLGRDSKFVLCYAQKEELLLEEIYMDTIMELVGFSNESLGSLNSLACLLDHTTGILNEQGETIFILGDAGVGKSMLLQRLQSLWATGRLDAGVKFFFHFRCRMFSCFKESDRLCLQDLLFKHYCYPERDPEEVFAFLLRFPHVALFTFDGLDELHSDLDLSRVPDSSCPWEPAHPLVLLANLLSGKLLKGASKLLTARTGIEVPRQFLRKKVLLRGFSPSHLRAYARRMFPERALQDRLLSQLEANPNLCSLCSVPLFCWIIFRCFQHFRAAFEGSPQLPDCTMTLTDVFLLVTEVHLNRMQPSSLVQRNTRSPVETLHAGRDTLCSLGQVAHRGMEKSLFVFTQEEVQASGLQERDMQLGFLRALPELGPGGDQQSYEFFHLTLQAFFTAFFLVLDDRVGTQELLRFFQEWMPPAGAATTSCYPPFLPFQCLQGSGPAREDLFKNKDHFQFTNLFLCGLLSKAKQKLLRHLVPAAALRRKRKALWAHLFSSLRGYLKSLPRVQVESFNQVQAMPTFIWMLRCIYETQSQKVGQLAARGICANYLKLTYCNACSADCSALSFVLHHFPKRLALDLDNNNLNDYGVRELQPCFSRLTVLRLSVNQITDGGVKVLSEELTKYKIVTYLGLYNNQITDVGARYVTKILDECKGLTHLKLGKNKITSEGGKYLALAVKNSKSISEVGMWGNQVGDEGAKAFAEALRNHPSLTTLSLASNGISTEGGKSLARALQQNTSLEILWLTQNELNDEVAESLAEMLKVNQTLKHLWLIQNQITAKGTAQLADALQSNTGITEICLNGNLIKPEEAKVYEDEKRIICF
The assay is described as follows: Binding affinity to NOD1 LRR domain (unknown origin).

Assay [2] concerns the target T2, Jacalin (Artocarpus heterophyllus, UniProt Q38720).
T2 sequence (Q38720 whole entry): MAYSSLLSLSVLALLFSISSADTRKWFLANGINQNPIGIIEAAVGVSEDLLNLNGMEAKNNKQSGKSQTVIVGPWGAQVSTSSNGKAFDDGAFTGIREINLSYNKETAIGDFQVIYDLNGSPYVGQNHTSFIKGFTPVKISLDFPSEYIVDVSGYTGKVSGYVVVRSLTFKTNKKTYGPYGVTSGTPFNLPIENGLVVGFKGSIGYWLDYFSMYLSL
The assay is described as follows: Binding affinity to jackfruit jacalin by SPR assay. A general note: Surface plasmon resonance follows binding to a sensor surface in real time, without labels.

Assay [3] can be described thus: Binding affinity to Jack bean Concanavalin A by SPR assay. On the set-up: species or system Canavalia ensiformis.
The target of assay [4] is Nucleotide-binding oligomerization domain-containing protein 2 (Homo sapiens, UniProt Q9HC29). The assay is described as follows: Binding affinity to human NOD2 LRR domain expressed in Escherichia coli by SPR assay.

For orientation: Kd means the equilibrium constant for the complex coming apart. Higher therefore signals lower affinity.

Chain of Nucleotide-binding oligomerization domain-containing protein 2 (Q9HC29 whole entry, the tested form may be a part): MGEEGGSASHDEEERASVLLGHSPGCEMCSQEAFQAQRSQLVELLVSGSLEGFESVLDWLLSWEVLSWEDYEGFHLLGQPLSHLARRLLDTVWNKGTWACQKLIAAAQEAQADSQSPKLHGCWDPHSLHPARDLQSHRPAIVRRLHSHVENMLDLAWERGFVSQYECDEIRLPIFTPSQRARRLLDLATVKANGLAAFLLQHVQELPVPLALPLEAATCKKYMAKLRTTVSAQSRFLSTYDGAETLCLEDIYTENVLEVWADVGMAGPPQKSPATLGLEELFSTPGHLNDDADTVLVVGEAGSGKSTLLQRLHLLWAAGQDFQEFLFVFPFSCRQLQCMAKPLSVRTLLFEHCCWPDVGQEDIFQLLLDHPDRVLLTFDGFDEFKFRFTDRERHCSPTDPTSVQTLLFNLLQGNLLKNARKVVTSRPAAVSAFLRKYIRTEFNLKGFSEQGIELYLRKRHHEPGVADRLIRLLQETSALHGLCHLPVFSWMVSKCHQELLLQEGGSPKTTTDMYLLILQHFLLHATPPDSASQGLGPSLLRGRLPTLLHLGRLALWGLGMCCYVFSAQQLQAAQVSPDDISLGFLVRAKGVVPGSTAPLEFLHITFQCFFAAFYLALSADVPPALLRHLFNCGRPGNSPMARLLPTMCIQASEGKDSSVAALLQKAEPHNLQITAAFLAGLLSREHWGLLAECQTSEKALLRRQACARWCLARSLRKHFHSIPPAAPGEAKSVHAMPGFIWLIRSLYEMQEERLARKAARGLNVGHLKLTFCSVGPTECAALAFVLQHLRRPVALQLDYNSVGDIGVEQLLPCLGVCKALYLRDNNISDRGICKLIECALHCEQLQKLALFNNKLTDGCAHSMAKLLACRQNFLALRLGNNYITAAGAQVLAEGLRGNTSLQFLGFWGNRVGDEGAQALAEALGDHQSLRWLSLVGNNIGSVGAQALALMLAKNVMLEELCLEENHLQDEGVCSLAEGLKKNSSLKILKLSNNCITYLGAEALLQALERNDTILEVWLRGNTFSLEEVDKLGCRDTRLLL

For `C[C@H](N)C(=O)N[C@H](CCC(=O)N[C@@H](CCC[C@@H](N)C(=O)O)C(=O)O)C(N)=O`, the affinity in assay [1], expressed as Kd, was 35 µM. `O=C[C@H](O)[C@@H](O)[C@@H](O)[C@H](O)CO` [GALACTOSE] yielded a Kd in assay [2] of 16 µM. The compound `OC[C@H]1OC(O)[C@@H](O)[C@@H](O)[C@@H]1O` (stereo partly drawn) [D-MANNOSE] gave a Kd in assay [3] of 200 µM.

In assay [4], `CC(=O)N[C@H]1C(O)O[C@H](CO)[C@@H](O)[C@@H]1O[C@H](C)C(=O)N[C@@H](C)C(=O)N[C@H](CCC(=O)O)C(N)=O` (some centres undefined) [MURAMYL DIPEPTIDE] returned a dissociation constant Kd of 0.2 µM.

The values are drawn from ChEMBL document CHEMBL4316627, “Modulation of the NOD-like receptors NOD1 and NOD2: A chemist's perspective” (Bioorg Med Chem Lett, 2019).
